Results published in the supplement of paper PMC10307832.

Tests used:
Experiment in all cases: relative viability (nuclei count vs DMSO), 5 days (fraction); higher = more cells survive
Irinotecan + Crizotinib = compound: CCc1c2c(nc3ccc(OC(=O)N4CCC(N5CCCCC5)CC4)cc13)-c1cc3c(c(=O)n1C2)COC(=O)[C@]3(O)CC [Irinotecan] + C[C@@H](Oc1cc(-c2cnn(C3CCNCC3)c2)cnc1N)c1c(Cl)ccc(F)c1Cl [Crizotinib] (partner 1 µM)
Method in brief: (§1)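 The day after seeding in 1536-well plates, lung cancer cell lines were treated by pin tool with a single drug, or with a fixed anchor-drug dose together with five library-drug doses (not always all listed) in √10 steps. After 5 days, a combined fix-and-stain solution (final 0.05% Triton X-100, 1% formaldehyde, 1 ug/ml Hoechst) was added. Nuclei counted on 4× images gave relative viability as treated counts over vehicle counts, reported as the median of duplicate plates.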

Irinotecan + Olaparib = compound: CCc1c2c(nc3ccc(OC(=O)N4CCC(N5CCCCC5)CC4)cc13)-c1cc3c(c(=O)n1C2)COC(=O)[C@]3(O)CC [Irinotecan] + O=C(c1cc(Cc2n[nH]c(=O)c3ccccc23)ccc1F)N1CCN(C(=O)C2CC2)CC1 [Olaparib] (partner 8 µM)
Method in brief: as §1

RU-SKI 43 + Foretinib = compound: CC[C@@H](C)CNCC(=O)N1CCC2=C([C@@H]1COC3=CC=CC(=C3)C)C=CS2 [RU-SKI 43] + COc1cc2c(Oc3ccc(NC(=O)C4(C(=O)Nc5ccc(F)cc5)CC4)cc3F)ccnc2cc1OCCCN1CCOCC1 [Foretinib] (partner 0.25 µM)
Method in brief: as §1

Irinotecan + Alpelisib = compound: CCc1c2c(nc3ccc(OC(=O)N4CCC(N5CCCCC5)CC4)cc13)-c1cc3c(c(=O)n1C2)COC(=O)[C@]3(O)CC [Irinotecan] + Cc1nc(NC(=O)N2CCC[C@H]2C(N)=O)sc1-c1ccnc(C(C)(C)C(F)(F)F)c1 [Alpelisib] (partner 2 µM)
Method in brief: as §1

UMC-11
relative viability (Irinotecan + Crizotinib; first compound 0.6325 µM): 0.296
relative viability (Irinotecan + Crizotinib; first compound 2 µM): 0.374
relative viability (Irinotecan + Crizotinib; first compound 6.325 µM): 0.326
relative viability (Irinotecan + Crizotinib; first compound 20 µM): 0.157
relative viability (Irinotecan + Olaparib; first compound 0.6325 µM): 0.273
relative viability (Irinotecan + Olaparib; first compound 2 µM): 0.206
relative viability (Irinotecan + Olaparib; first compound 6.325 µM): 0.283
relative viability (Irinotecan + Olaparib; first compound 20 µM): 0.226
relative viability (RU-SKI 43 + Foretinib; first compound 0.1 µM): 1.07
relative viability (RU-SKI 43 + Foretinib; first compound 0.3162 µM): 1.14
relative viability (RU-SKI 43 + Foretinib; first compound 1 µM): 1.05
relative viability (RU-SKI 43 + Foretinib; first compound 3.162 µM): 1.14
relative viability (RU-SKI 43 + Foretinib; first compound 10 µM): 1.03
relative viability (Irinotecan + Alpelisib; first compound 0.6325 µM): 0.572
relative viability (Irinotecan + Alpelisib; first compound 2 µM): 0.401
relative viability (Irinotecan + Alpelisib; first compound 6.325 µM): 0.214
relative viability (Irinotecan + Alpelisib; first compound 20 µM): 0.229
